According to ChEMBL document CHEMBL1201862, “PubChem BioAssay data set” (2004):
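Cells were grown in 96-well plates and exposed to each compound for 48 hours at five concentrations; endpoints were interpolated linearly between bracketing concentrations, or set to the highest concentration if not reached. The concentration for 50% growth inhibition is given as GI50.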 Active and inactive are the calls of the source. Cut-off read from the data, not from the text of the source: active = GI50 up to about 1.1 µM and inactive = higher.

Experiments:
Assay in all cases: NCI-60 cell line screen, 48 h
SN12C = test system: SN12C
Malme-3M = test system: Malme-3M
OVCAR-8 = test system: OVCAR-8
SK-OV-3 = test system: SK-OV-3
BT-549 = test system: BT-549
MDA-MB-231 = test system: MDA-MB-231
NCI-H522 = test system: NCI-H522
SF-268 = test system: SF-268
T47D = test system: T47D
MDA-N = test system: MDA-N
K562 = test system: K562
RXF 393 = test system: RXF 393
SK-MEL-28 = test system: SK-MEL-28
UO-31 = test system: UO-31
DU-145 = test system: DU-145
U-251 = test system: U-251
IGROV-1 = test system: IGROV-1
SK-MEL-2 = test system: SK-MEL-2
OVCAR-4 = test system: OVCAR-4
Hs-578T = test system: Hs-578T

Measured: GI50

CN1CN(c2ccccc2)C2(CCN(Cc3csc4ccccc34)CC2)C1=O
inactive: SN12C 13.5 µM | Malme-3M 17.2 µM | OVCAR-8 16.2 µM | SK-OV-3 38.2 µM | BT-549 7.35 µM | MDA-MB-231 > 10 µM | NCI-H522 9.23 µM | SF-268 22.3 µM | T47D 5.11 µM | MDA-N 15.2 µM | K562 5.45 µM | RXF 393 16.6 µM | SK-MEL-28 22.1 µM | UO-31 3.71 µM | DU-145 49.2 µM | U-251 8.55 µM | IGROV-1 10.8 µM

COc1ccc(-n2sc3ncc(C)cc3c2=O)cc1
inactive: SN12C 16.1 µM | Malme-3M 18.5 µM | OVCAR-8 18.2 µM | SK-MEL-2 21.8 µM | SK-OV-3 39.8 µM | BT-549 19.4 µM | MDA-MB-231 17 µM | NCI-H522 20.6 µM | OVCAR-4 33.4 µM | SF-268 20.9 µM | T47D 17.5 µM | MDA-N 16.5 µM | K562 39 µM | SK-MEL-28 24.2 µM | UO-31 17.6 µM | DU-145 21.7 µM | U-251 22.4 µM | IGROV-1 31.9 µM | Hs-578T 30.6 µM

Cc1ccccc1Nc1nc(NNC(=O)Cc2ccccc2)nc(NNC(=O)c2ccncc2)n1
inactive: SN12C > 10 µM | Malme-3M > 10 µM | OVCAR-8 > 10 µM | SK-OV-3 > 10 µM | BT-549 > 10 µM | MDA-MB-231 > 10 µM | OVCAR-4 > 10 µM | SF-268 > 10 µM | T47D > 10 µM | MDA-N > 10 µM | K562 > 10 µM | SK-MEL-28 > 10 µM | UO-31 > 10 µM | DU-145 > 10 µM | U-251 > 10 µM | IGROV-1 > 10 µM | Hs-578T > 10 µM

CC(=O)c1cccc(Nc2nc3ccccc3c3[nH]c4ccccc4c23)c1
inactive: SN12C 3.49 µM | Malme-3M 3.61 µM | OVCAR-8 3.86 µM | SK-MEL-2 3.75 µM | SK-OV-3 5.42 µM | BT-549 > 100 µM | MDA-MB-231 3.19 µM | NCI-H522 2.57 µM | SF-268 3.67 µM | T47D 3.48 µM | MDA-N 4.73 µM | K562 4.69 µM | UO-31 3.33 µM | DU-145 4.93 µM | U-251 3.98 µM | IGROV-1 2.88 µM | Hs-578T 10.9 µM

COc1ccc(-c2cc(-c3cc(C)cc(Br)c3O)no2)cc1
inactive: SN12C 7.59 µM | OVCAR-8 4.31 µM | SK-MEL-2 22.2 µM | SK-OV-3 6.3 µM | BT-549 14.9 µM | MDA-MB-231 12.4 µM | NCI-H522 3.98 µM | OVCAR-4 3.37 µM | SF-268 4.17 µM | T47D 5.38 µM | MDA-N 23.6 µM | K562 14.1 µM | SK-MEL-28 18.7 µM | UO-31 12.5 µM | DU-145 16.6 µM | U-251 5.66 µM | IGROV-1 10.8 µM | Hs-578T 4.86 µM

COC(=O)/C=C/c1ccc2nncnc2c1.COC(=O)/C=C\c1ccc2nncnc2c1
inactive: SN12C > 100 µM | OVCAR-8 57.9 µM | SK-MEL-2 48.6 µM | SK-OV-3 > 100 µM | BT-549 60.8 µM | MDA-MB-231 > 100 µM | NCI-H522 28.5 µM | OVCAR-4 > 100 µM | SF-268 75.7 µM | T47D 98.4 µM | MDA-N 20.9 µM | K562 43 µM | SK-MEL-28 43.8 µM | UO-31 56.1 µM | DU-145 28.7 µM | U-251 79.1 µM | IGROV-1 85.5 µM | Hs-578T 9.14 µM

COc1c(CC=C(C)C)c(O)c(C(CC(C)C)c2c(O)c3c(c(C(C)=O)c2O)OC(C(C)(C)O)C3)c(O)c1C(C)=O (centres undefined)
inactive: SN12C 3.93 µM | Malme-3M 3.91 µM | OVCAR-8 4.4 µM | SK-MEL-2 4.15 µM | SK-OV-3 5.46 µM | BT-549 3 µM | NCI-H522 3.42 µM | OVCAR-4 4.57 µM | SF-268 4.53 µM | T47D 3.46 µM | MDA-N 4.05 µM | K562 2.6 µM | RXF 393 3.67 µM | SK-MEL-28 6.12 µM | UO-31 4.32 µM | DU-145 4.54 µM | IGROV-1 5.07 µM | Hs-578T 3.94 µM

CC(=O)O[C@H]1CC[C@H]2[C@@H]3CCC4=CC(=O)C=C[C@]4(O)[C@H]3CC[C@]12C
inactive: SN12C > 71.9 µM | OVCAR-8 19.1 µM | SK-MEL-2 22.1 µM | BT-549 43 µM | MDA-MB-231 > 82.8 µM | OVCAR-4 > 48.9 µM | T47D 13.3 µM | MDA-N 29.9 µM | K562 7.66 µM | RXF 393 20.6 µM | SK-MEL-28 28.2 µM | UO-31 55.5 µM | DU-145 > 50.4 µM | U-251 46 µM | IGROV-1 55.1 µM

Cc1cn(CCCCOC(=O)NC(CCCNC(N)=O)C(=O)O)c(=O)[nH]c1=O (centres undefined)
inactive: SN12C > 100 µM | OVCAR-8 > 100 µM | SK-MEL-2 > 100 µM | SK-OV-3 > 100 µM | BT-549 > 100 µM | MDA-MB-231 > 100 µM | OVCAR-4 > 100 µM | SF-268 > 100 µM | T47D > 100 µM | MDA-N > 100 µM | K562 > 100 µM | RXF 393 > 100 µM | SK-MEL-28 > 100 µM | UO-31 > 100 µM | DU-145 > 100 µM | U-251 > 100 µM | IGROV-1 > 100 µM | Hs-578T > 100 µM

Cc1ccc(C)c(NC(=O)/C(=N\N)C(c2cnc3ccc([N+](=O)[O-])cc3n2)[N+](=O)[O-])c1 (centres undefined)
inactive: SN12C > 100 µM | Malme-3M 66.8 µM | OVCAR-8 37 µM | SK-MEL-2 71.6 µM | SK-OV-3 67.5 µM | BT-549 > 100 µM | MDA-MB-231 37.8 µM | NCI-H522 19.7 µM | OVCAR-4 18.4 µM | SF-268 93.5 µM | T47D 87.7 µM | MDA-N > 100 µM | K562 > 100 µM | RXF 393 > 100 µM | SK-MEL-28 > 100 µM | UO-31 23.6 µM | U-251 > 100 µM | IGROV-1 51.9 µM | Hs-578T 80.4 µM

O=C(O)COc1cc(-c2ccccc2)nc2ccc(F)cc12
inactive: SN12C > 100 µM | Malme-3M > 100 µM | OVCAR-8 > 100 µM | SK-MEL-2 > 100 µM | SK-OV-3 > 100 µM | BT-549 > 100 µM | MDA-MB-231 > 100 µM | NCI-H522 58.1 µM | OVCAR-4 > 100 µM | SF-268 > 100 µM | T47D > 100 µM | MDA-N > 100 µM | K562 > 100 µM | SK-MEL-28 > 100 µM | UO-31 70 µM | DU-145 > 100 µM | U-251 > 100 µM | IGROV-1 > 100 µM | Hs-578T > 100 µM

C=C1C[C@@H]2O[C@H]3[C@H]4[C@@H](C[C@@H](C)[C@@H](OC(C)=O)[C@H]42)[C@@H](C)CO[C@@]3(C)[C@H](OC(=O)CCCCCCC)CC1=O
inactive: SN12C 16 µM | OVCAR-8 13.6 µM | SK-MEL-2 19.2 µM | BT-549 18.1 µM | MDA-MB-231 20.8 µM | NCI-H522 19.6 µM | SF-268 18.8 µM | T47D 15.4 µM | MDA-N 16.8 µM | K562 > 10 µM | SK-MEL-28 14.9 µM | UO-31 15.6 µM | DU-145 17.6 µM | U-251 16.8 µM | IGROV-1 21.5 µM | Hs-578T 17.1 µM

CCN1CCN(c2nc3ccc([N+](=O)[O-])cc3nc2C(=O)c2ccccc2)CC1
inactive: SN12C 16.3 µM | Malme-3M 13.1 µM | OVCAR-8 16.8 µM | SK-MEL-2 15.8 µM | SK-OV-3 14.8 µM | BT-549 5.64 µM | MDA-MB-231 14.6 µM | NCI-H522 2.67 µM | SF-268 19.1 µM | T47D 26.7 µM | MDA-N 18.7 µM | K562 6.31 µM | RXF 393 16.7 µM | UO-31 12.6 µM | DU-145 18.8 µM | U-251 17.3 µM | IGROV-1 5.78 µM

O=C1CCCNn2c(nc3ncccc3c2=O)N1
inactive: Malme-3M > 100 µM | OVCAR-8 > 100 µM | SK-MEL-2 > 100 µM | SK-OV-3 > 100 µM | BT-549 > 100 µM | MDA-MB-231 > 100 µM | NCI-H522 > 100 µM | OVCAR-4 > 100 µM | SF-268 > 100 µM | T47D > 100 µM | MDA-N > 100 µM | K562 > 100 µM | RXF 393 > 100 µM | UO-31 > 100 µM | U-251 > 100 µM | IGROV-1 > 100 µM | Hs-578T > 100 µM

O=C(O)c1cccc(F)c1C(=O)c1ccc2ccccc2c1
inactive: SN12C > 100 µM | Malme-3M > 100 µM | OVCAR-8 > 100 µM | SK-MEL-2 > 100 µM | SK-OV-3 > 100 µM | BT-549 > 100 µM | MDA-MB-231 > 100 µM | NCI-H522 62.2 µM | OVCAR-4 > 100 µM | SF-268 > 100 µM | T47D 3.94 µM | MDA-N > 100 µM | K562 > 100 µM | RXF 393 > 100 µM | SK-MEL-28 > 100 µM | UO-31 > 100 µM | U-251 > 100 µM | IGROV-1 > 100 µM | Hs-578T > 100 µM
